For this test, the target named is T1, human glucagon receptor (Homo sapiens, UniProt P47871).
T1 construct: expressed in transfected cells; host or cells: BHK (baby hamster kidney) cells
The test can be described thus: Glucagon Binding Assay (III). As to conditions: BHK cell membranes, WGA SPA beads, 125I-glucagon; read-out: Glu Bd Assay (III) IC50. The method in brief:
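Membranes from BHK cells transfected with the human receptor, prepared at 4 °C, were used in a WGA-bead scintillation proximity binding format. Plates were shaken for 4 hours, left to settle 8–48 hours and then counted. Non-specific binding was defined with 500 nM glucagon.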

The IC50 is the concentration that inhibits the measured activity by half.

T1 sequence (P47871 26-477): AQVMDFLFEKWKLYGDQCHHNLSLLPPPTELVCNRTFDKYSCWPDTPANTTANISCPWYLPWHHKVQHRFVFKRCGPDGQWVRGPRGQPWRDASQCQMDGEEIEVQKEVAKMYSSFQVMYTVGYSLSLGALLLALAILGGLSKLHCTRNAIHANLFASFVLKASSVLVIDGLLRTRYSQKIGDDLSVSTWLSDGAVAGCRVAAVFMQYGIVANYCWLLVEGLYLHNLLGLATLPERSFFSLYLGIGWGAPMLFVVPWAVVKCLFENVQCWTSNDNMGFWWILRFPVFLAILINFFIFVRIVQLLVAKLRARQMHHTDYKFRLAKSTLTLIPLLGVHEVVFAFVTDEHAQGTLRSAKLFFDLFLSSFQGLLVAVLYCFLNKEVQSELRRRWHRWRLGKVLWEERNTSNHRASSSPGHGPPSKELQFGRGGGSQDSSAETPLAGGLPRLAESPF

As to `O=C(Nc1nn[nH]n1)c1ccc(CN(C(=O)Nc2cccc(C(F)(F)F)c2)c2ccc(C3=CCCCC3)cc2)cc1` [Example 326, 4-[1-(4-Cyclohex-1-enylphenyl)-3-(3-trifluoromethylphenyl)ureidomethyl]-N-(2H-tetrazol-5-yl)benzamide], the IC50 came to 21 nM.

With `Cc1ccc(NC(=O)N(Cc2ccc(C(=O)Nc3nn[nH]n3)cc2)c2ccc(C3CCCCC3)cc2)cc1Cl` [Example 327, 4-[3-(3-Chloro-4-methylphenyl)-1-(4-cyclohexylphenyl)ureidomethyl]-N-(2H-tetrazol-5-yl)benzamide], the IC50 came to 15 nM.

Regarding `O=C(Nc1nn[nH]n1)c1ccc(CN(C(=O)Nc2ccc(F)c(C(F)(F)F)c2)c2ccc(C3=CCCCC3)cc2)cc1` [Example 328, 4-[1-(4-Cyclohex-1-enylphenyl)-3-(4-fluoro-3-trifluoromethylphenyl)ureidomethyl]-N-(2H-tetrazol-5-yl)benzamide], the IC50 came to 14 nM.

Consider `CC(C)(C)c1ccc(N(Cc2ccc(C(=O)Nc3nn[nH]n3)cc2)C(=O)Nc2ccccc2)cc1` [Example 329], for which the IC50 worked out at 278 nM.

For the compound `CC(C)(C)c1ccc(N(Cc2ccc(C(=O)Nc3nn[nH]n3)cc2)C(=O)Nc2cc(C(F)(F)F)cc(C(F)(F)F)c2)cc1` [Example 330, 4-[3-(3,5-Bis(trifluoromethyl)phenyl)-1-(4-tert-butylphenyl)ureidomethyl]-N-(2H-tetrazol-5-yl)benzamide], the IC50 is 44 nM.

As to `CC(C)(C)c1ccc(N(Cc2ccc(C(=O)Nc3nn[nH]n3)cc2)C(=O)Nc2ccc(Cl)c(C(F)(F)F)c2)cc1` [Example 331, 4-[1-(4-tert-Butylphenyl)-3-(4-chloro-3-trifluoromethylphenyl)ureidomethyl]-N-(2H-tetrazol-5-yl)benzamide], the IC50 worked out at 30 nM.

For the compound `CC(C)(C)c1ccc(N(Cc2ccc(C(=O)Nc3nn[nH]n3)cc2)C(=O)Nc2ccc(SC(F)(F)F)cc2)cc1` [Example 332, 4-[1-(4-tert-Butylphenyl)-3-(4-trifluoromethylsulfanylphenyl)ureidomethyl]-N-(2H-tetrazol-5-yl)benzamide], the IC50 was 20 nM.

On to `CC(C)(C)c1ccc(N(Cc2ccc(C(=O)Nc3nn[nH]n3)cc2)C(=O)Nc2cc(Cl)cc(Cl)c2)cc1` [Example 333, 4-[1-(4-tert-Butylphenyl)-3-(3,5-dichlorophenyl)ureidomethyl]-N-(2H-tetrazol-5-yl)benzamide], for which the IC50 was 26 nM.

Consider `CC(C)(C)[C@H]1CC[C@H](N(Cc2ccc(C(=O)Nc3nn[nH]n3)cc2)C(=O)Nc2ccc(OCC3CC3)cc2C(F)(F)F)CC1` [Example 334, 4-[1-(trans-4-tert-Butylcyclohexyl)-3-(4-cyclopropylmethoxy-2-trifluoromethylphenyl)ureidomethyl]-N-(2H-tetrazol-5-yl)benzamide], for which the IC50 was 288 nM.

With `O=C(Nc1nn[nH]n1)c1ccc(CN(C(=O)Nc2cc(Cl)sc2Cl)c2ccc(C3CCCCC3)cc2)cc1` [Example 335, 4-[1-(4-Cyclohexylphenyl)-3-(2,5-dichlorothiophen-3-yl)ureidomethyl]-N-(2H-tetrazol-5-yl)benzamide], the IC50 was 1090 nM.

Regarding `CC(NC(=O)N(Cc1ccc(C(=O)Nc2nn[nH]n2)cc1)c1ccc(C2CCCCC2)cc1)c1ccc(Cl)cc1` (stereo not shown) [Example 336, 4-[3-[1-(4-Chlorophenyl)ethyl]-1-(4-cyclohexylphenyl)ureidomethyl]-N-(2H-tetrazol-5-yl)benzamide], the IC50 came out at 58 nM.

Regarding `COc1ccc(NC(=O)N(Cc2ccc(C(=O)Nc3nn[nH]n3)cc2)c2ccc(C(C)(C)C)cc2)cc1S(C)(=O)=O` [Example 339, 4-[1-(4-tert-Butylphenyl)-3-(3-methylsulfonyl-4-methoxyphenyl)ureidomethyl]-N-(2H-tetrazol-5-yl)benzamide], the IC50 is 797 nM.

Consider `COc1ccc(NC(=O)N(Cc2ccc(C(=O)Nc3nn[nH]n3)cc2)c2ccc(C3CCCCC3)cc2)cc1S(C)(=O)=O` [Example 340, 4-[1-(4-Cyclohexylphenyl)-3-(3-methylsulfonyl-4-methoxyphenyl)ureidomethyl]-N-(2H-tetrazol-5-yl)benzamide], for which the IC50 was 179 nM.

For the compound `O=C(Nc1nn[nH]n1)c1ccc(CN(C(=O)Nc2nc3ccc(OC(F)(F)F)cc3s2)c2ccc(C3CCCCC3)cc2)cc1` [Example 341, 4-[1-(4-Cyclohexylphenyl)-3-(6-trifluoromethoxybenzothiazol-2-yl)ureidomethyl]-N-(2H-tetrazol-5-yl)benzamide], the IC50 amounted to 56 nM.

Consider `O=C(Nc1nn[nH]n1)c1ccc(CN(C(=O)Nc2nc3ccc([N+](=O)[O-])cc3s2)c2ccc(C3CCCCC3)cc2)cc1` [Example 342, 4-[1-(4-Cyclohexylphenyl)-3-(6-nitrobenzothiazol-2-yl)ureidomethyl]-N-(2H-tetrazol-5-yl)benzamide], for which the IC50 amounted to 376 nM.

On to `CCOC(=O)c1ccc2nc(NC(=O)N(Cc3ccc(C(=O)Nc4nn[nH]n4)cc3)c3ccc(C4CCCCC4)cc3)sc2c1` [Example 343, 2-{3-(4-Cyclohexylphenyl)-3-[4-(2H-tetrazol-5-ylcarbamoyl)benzyl]ureido}benzothiazole-6-carboxylic acid ethyl ester], for which the IC50 amounted to 99 nM.

Turning to `O=C(Nc1nn[nH]n1)c1ccc(CN(C(=O)Nc2cccc(OC(F)(F)F)c2)c2ccc(C3CCCCC3)cc2)cc1` [Example 344, 4-[1-(4-Cyclohexylphenyl)-3-(3-trifluoromethoxyphenyl)ureidomethyl]-N-(2H-tetrazol-5-yl)benzamide], the IC50 was determined as 16 nM.

For `O=C(Nc1nn[nH]n1)c1ccc(CN(C(=O)NCc2ccccc2Br)c2ccc(C3CCCCC3)cc2)cc1` [Example 345, 4-[3-(2-Bromobenzyl)-1-(4-cyclohexylphenyl)ureidomethyl]-N-(2H-tetrazol-5-yl)benzamide], the IC50 was found to be 64 nM.

For `O=C(Nc1nn[nH]n1)c1ccc(CN(C(=O)Nc2ccc(Cl)c(Cl)c2)c2ccc(C3CCCCC3)cc2)cc1` [Example 346, 4-[1-(4-Cyclohexylphenyl)-3-(3,4-dichlorophenyl)ureidomethyl]-N-(2H-tetrazol-5-yl)benzamide], the IC50 came out at 25 nM.

Turning to `O=C(Nc1nn[nH]n1)c1ccc(CN(C(=O)NCc2ccc(OC(F)(F)F)cc2)c2ccc(C3CCCCC3)cc2)cc1` [Example 347, 4-[1-(4-Cyclohexylphenyl)-3-(4-trifluoromethoxybenzyl)ureidomethyl]-N-(2H-tetrazol-5-yl)benzamide], the IC50 worked out at 79 nM.

As for `O=C(Nc1nn[nH]n1)c1ccc(CN(C(=O)NCc2ccccc2OC(F)(F)F)c2ccc(C3CCCCC3)cc2)cc1` [Example 348, 4-[1-(4-Cyclohexylphenyl)-3-(2-trifluoromethoxybenzyl)ureidomethyl]-N-(2H-tetrazol-5-yl)benzamide], the IC50 was 73 nM.

Turning to `O=C(Nc1nn[nH]n1)c1ccc(CN(C(=O)Nc2cccc(Br)c2)c2ccc(C3=CCCCC3)cc2)cc1` [Example 349, 4-[3-(3-Bromophenyl)-1-(4-cyclohex-1-enylphenyl)ureidomethyl]-N-(2H-tetrazol-5-yl)benzamide], the IC50 was determined as 6 nM.

Regarding `O=C(Nc1nn[nH]n1)c1ccc(CN(C(=O)Nc2ccccc2OC(F)(F)F)c2ccc(C3CCCCC3)cc2)cc1` [Example 350, 4-[1-(4-Cyclohexylphenyl)-3-(2-trifluoromethoxyphenyl)ureidomethyl]-N-(2H-tetrazol-5-yl)benzamide], the IC50 was found to be 271 nM.

Turning to `O=C(Nc1nn[nH]n1)c1ccc(CN(C(=O)Nc2ccccc2OC(F)(F)F)c2ccc(C3=CCCCC3)cc2)cc1` [Example 351, 4-[1-(4-Cyclohex-1-enylphenyl)-3-(2-trifluoromethoxyphenyl)ureidomethyl]-N-(2H-tetrazol-5-yl)benzamide], the IC50 was 368 nM.

Take `O=C(Nc1nn[nH]n1)c1ccc(CN(C(=O)Nc2cccc(OC(F)(F)F)c2)c2ccc(C3=CCCCC3)cc2)cc1` [Example 352, 4-[1-(4-Cyclohex-1-enylphenyl)-3-(3-trifluoromethoxyphenyl)ureidomethyl]-N-(2H-tetrazol-5-yl)benzamide]: the IC50 is 21 nM.

In the case of `O=C(Nc1nn[nH]n1)c1ccc(CN(C(=O)NCc2ccccc2-c2ccccc2)c2ccc(C3=CCCCC3)cc2)cc1` [Example 353, 4-[3-Biphenyl-2-ylmethyl-1-(4-cyclohex-1-enylphenyl)ureidomethyl]-N-(2H-tetrazol-5-yl)benzamide], the IC50 came out at 22 nM.

As for `O=C(Nc1nn[nH]n1)c1ccc(CN(C(=O)NCc2ccccc2-c2ccccc2)c2ccc(C3CCCCC3)cc2)cc1` [Example 354, 4-[3-Biphenyl-2-ylmethyl-1-(4-cyclohexylphenyl)ureidomethyl]-N-(2H-tetrazol-5-yl)benzamide], the IC50 came out at 11 nM.

Regarding `C[C@@H](NC(=O)N(Cc1ccc(C(=O)Nc2nn[nH]n2)cc1)c1ccc(C2=CCCCC2)cc1)c1ccc(Br)cc1` [Example 355, (R)-4-[3-[1-(4-Bromophenyl)ethyl]-1-(cyclohex-1-enylphenyl)ureidomethyl]-N-(2H-tetrazol-5-yl)benzamide], the IC50 stood at 112 nM.

Regarding `O=C(Nc1nn[nH]n1)c1ccc(CN(C(=O)Nc2cccc(Br)c2)c2ccc(C3CCCCC3)cc2)cc1` [Example 356, 4-[3-(3-Bromophenyl)-1-(4-cyclohexylphenyl)ureidomethyl]-N-(2H-tetrazol-5-yl)benzamide], the IC50 stood at 16 nM.

Regarding `CC(C)(C)c1cccc(NC(=O)N(Cc2ccc(C(=O)Nc3nn[nH]n3)cc2)c2ccc(C3CCCCC3)cc2)c1` [Example 357, 4-[1-(4-Cyclohexylphenyl)-3-(3-tert-butylphenyl)ureidomethyl]-N-(2H-tetrazol-5-yl)benzamide], the IC50 was 17 nM.

In the case of `O=C(Nc1nn[nH]n1)c1ccc(CN(C(=O)Nc2ccc3c(c2)C(F)(F)OC(F)(F)O3)c2ccc(C3=CCCCC3)cc2)cc1` [Example 358, 4-[1-(4-Cyclohex-1-enylphenyl)-3-(2,2,4,4-tetrafluoro-4H-benzo[1,3]dioxin-6-yl)ureidomethyl]-N-(2H-tetrazol-5-yl)benzamide], the IC50 came out at 19 nM.

The values above are taken from patent US6875760B2 (Novo Nordisk A/S, priority 1999, dated 2005).
